One may read the melting point as the temperature, or range, at which the solid turns liquid.

The target of one series is T1, hα2C receptor (Homo sapiens, UniProt P18825).
T1 construct: expressed in transfected cells; host or cells: CHO cells
T1 sequence (P18825 1-462): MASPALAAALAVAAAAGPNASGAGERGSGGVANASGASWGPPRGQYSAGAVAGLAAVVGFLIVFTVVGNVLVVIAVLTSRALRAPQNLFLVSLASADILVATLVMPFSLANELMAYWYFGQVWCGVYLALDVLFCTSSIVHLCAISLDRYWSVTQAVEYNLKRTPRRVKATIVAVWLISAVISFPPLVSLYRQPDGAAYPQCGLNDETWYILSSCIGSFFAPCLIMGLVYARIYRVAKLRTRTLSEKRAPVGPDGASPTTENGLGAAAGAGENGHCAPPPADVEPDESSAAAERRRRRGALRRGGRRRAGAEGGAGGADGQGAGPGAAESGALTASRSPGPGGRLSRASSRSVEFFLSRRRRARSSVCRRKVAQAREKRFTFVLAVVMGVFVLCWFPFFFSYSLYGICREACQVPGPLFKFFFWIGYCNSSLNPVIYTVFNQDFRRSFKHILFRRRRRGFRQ
Put plainly: Radioligand binding experiment for hα2C receptor ([3H]-raulwolscine, CHO cell membranes). The note with it: [3H]-raulwolscine 1 nM, membranes of CHO cells transfected with human α2C receptor; read-out: pIC50 hα2C (converted). On the procedure: (§1) The interaction of the compounds according to Formula (I) with hα2-receptors and h5-HT-transporters was assessed in in vitro radioligand binding experiments. In general, a low concentration of a radioligand with a high binding affinity for a particular receptor or transporter is incubated with a sample of a tissue preparation enriched in a particular receptor or transporter or with a preparation of cells expressing cloned human receptors in a buffered medium. During the incubation, the radioligand binds to the receptor or transporter. When equilibrium of binding is reached, the receptor bound radioactivity is separated from the non-bound radioactivity, and the receptor- or transporter-bound activity is counted. The interaction of the test compounds with the receptor is assessed in competition binding experiments. Various concentrations of the test compound are added to the incubation mixture containing the receptor- or transporter preparation and the radioligand. The test compound in proportion to its binding affinity and its concentration inhibits binding of the radioligand. The radioligand used for hα2A, hα2B and hα2C receptor binding was [^3H]-raulwolscine and for the h5-HT transporter was [^3H]paroxetine.
(§2) CHO cells, stabile transfected with human adrenergic-α2A-, —α2B or α2C receptor cDNA, were cultured in Dulbecco's Modified Eagle's Medium (DMEM)/Nutrient mixture Ham's F12 (ratio 1:1)(Gibco, Gent-Belgium) supplemented with 10% heat inactivated fetal calf serum (Life Technologies, Merelbeke-Belgium) and antibiotics (100 IU/ml penicillin G, 100 μg/ml streptomycin sulphate, 110 μg/ml pyruvic acid and 100 μg/ml L-glutamine). One day before collection, cells were induced with 5 mM sodiumbutyrate. Upon 80-90% of confluence, cells were scraped in phosphate buffered saline without Ca^2+ and Mg^2+ and collected by centrifugation at 1500×g for 10 min. The cells were homogenised in Tris-HCl 50 mM using an Ultraturrax homogenizer and centrifuged for 10 min at 23,500×g. The pellet was washed once by resuspension and rehomogenization and the final pellet was resuspended in Tris-HCl, divided in 1 ml aliquots and stored at −70° C.
(§3) Membranes were thawed and re-homogenized in incubation buffer (glycylglycine 25 mM, pH 8.0). In a total volume of 500 μl, 2-10 μg protein was incubated with [^3H]raulwolscine (NET-722) (New England Nuclear, USA) (1 nM final concentration) with or without competitor for 60 min at 25° C. followed by rapid filtration over GF/B filter using a Filtermate196 harvester (Packard, Meriden, Conn.). Filters were rinsed extensively with ice-cold rinsing buffer (Tris-HCl 50 mM pH 7.4). Filter-bound radioactivity was determined by scintillation counting in a Topcount (Packard, Meriden, Conn.) and results were expressed as counts per minute (cpm). Non-specific binding was determined in the presence of 1 μM oxymetazoline for hα2A- and hα2B receptors and 1 μM spiroxatrine for hα2C receptors.
(§4) Data from assays in the presence of compound were calculated as a percentage of total binding measured in the absence of test compound. Inhibition curves, plotting percent of total binding versus the log value of the concentration of the test compound, were automatically generated, and sigmoidal inhibition curves were fitted using non-linear regression. The pIC50 values of test compounds were derived from individual curves.

The target in a further series is T2, hα2A receptor (Homo sapiens, UniProt P08913).
T2 construct: expressed in transfected cells; host or cells: CHO cells
T2 sequence (P08913 1-465): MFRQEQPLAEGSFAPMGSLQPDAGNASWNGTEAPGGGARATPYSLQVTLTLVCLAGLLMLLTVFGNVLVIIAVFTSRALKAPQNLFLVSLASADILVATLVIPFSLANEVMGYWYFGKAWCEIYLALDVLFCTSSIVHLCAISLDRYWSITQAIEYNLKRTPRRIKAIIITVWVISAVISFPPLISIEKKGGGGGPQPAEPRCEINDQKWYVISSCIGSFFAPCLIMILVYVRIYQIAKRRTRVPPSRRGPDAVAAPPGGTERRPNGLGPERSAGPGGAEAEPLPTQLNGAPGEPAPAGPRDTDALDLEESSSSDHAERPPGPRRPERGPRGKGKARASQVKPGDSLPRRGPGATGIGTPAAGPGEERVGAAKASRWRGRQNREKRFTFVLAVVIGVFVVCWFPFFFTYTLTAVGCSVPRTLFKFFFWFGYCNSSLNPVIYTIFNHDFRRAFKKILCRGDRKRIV
Put plainly: Radioligand binding experiment for hα2A receptor ([3H]-raulwolscine, CHO cell membranes). The note with it: [3H]-raulwolscine 1 nM, membranes of CHO cells transfected with human α2A receptor; read-out: pIC50 hα2A (converted). On the procedure:
as §1, §2, §3, §4

The next series concerns the target T3, hα2B receptor (Homo sapiens, UniProt P18089).
T3 construct: expressed in transfected cells; host or cells: CHO cells
T3 sequence (P18089 1-450): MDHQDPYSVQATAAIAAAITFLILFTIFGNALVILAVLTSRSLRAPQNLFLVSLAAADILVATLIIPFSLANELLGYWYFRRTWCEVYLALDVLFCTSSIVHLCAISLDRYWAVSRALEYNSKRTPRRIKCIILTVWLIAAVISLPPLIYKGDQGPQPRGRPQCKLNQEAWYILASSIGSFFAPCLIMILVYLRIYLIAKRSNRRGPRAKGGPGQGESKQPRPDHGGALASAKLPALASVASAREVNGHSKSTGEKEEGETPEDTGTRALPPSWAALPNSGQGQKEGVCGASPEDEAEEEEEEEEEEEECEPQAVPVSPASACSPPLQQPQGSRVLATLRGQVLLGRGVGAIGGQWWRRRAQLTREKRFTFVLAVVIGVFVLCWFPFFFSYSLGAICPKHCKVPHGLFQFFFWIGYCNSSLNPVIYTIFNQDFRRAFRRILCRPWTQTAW
Put plainly: Radioligand binding experiment for hα2B receptor ([3H]-raulwolscine, CHO cell membranes). The note with it: [3H]-raulwolscine 1 nM, membranes of CHO cells transfected with human α2B receptor; read-out: pIC50 hα2B (converted). On the procedure: as §1, §2, §3, §4

In another series the target is T4, h5-HT transporter (Homo sapiens, UniProt P31645).
T4 construct: Human platelet membranes (Oceanix Biosciences Corporation, Hanover, Md., USA) were thawed; tissue Oceanix Biosciences Corporation; host or cells: human platelet membranes
T4 sequence (P31645 whole entry): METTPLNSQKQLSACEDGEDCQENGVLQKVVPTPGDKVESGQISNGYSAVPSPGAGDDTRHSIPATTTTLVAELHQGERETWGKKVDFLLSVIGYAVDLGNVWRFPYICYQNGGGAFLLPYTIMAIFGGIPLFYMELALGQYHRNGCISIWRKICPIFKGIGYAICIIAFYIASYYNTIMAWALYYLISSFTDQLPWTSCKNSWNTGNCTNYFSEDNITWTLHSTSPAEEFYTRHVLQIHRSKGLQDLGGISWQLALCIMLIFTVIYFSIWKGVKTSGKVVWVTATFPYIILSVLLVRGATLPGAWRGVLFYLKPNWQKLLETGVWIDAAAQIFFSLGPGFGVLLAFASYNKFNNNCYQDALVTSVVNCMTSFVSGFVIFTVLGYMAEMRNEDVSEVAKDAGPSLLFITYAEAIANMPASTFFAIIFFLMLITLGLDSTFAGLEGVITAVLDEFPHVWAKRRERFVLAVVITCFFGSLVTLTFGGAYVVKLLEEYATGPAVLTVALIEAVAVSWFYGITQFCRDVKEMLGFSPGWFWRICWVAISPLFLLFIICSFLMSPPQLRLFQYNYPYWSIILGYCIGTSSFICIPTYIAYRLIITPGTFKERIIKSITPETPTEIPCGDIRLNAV
As to the kind of experiment: Radioligand binding experiment for 5-HT transporter ([3H]paroxetine, human platelet membranes). The note with it: [3H]paroxetine 0.5 nM, read-out: pIC50 h5HTT (converted). On the procedure: as §1
Human platelet membranes (Oceanix Biosciences Corporation, Hanover, Md., USA) were thawed, diluted in buffer (Tris-HCl 50 mM, 120 mM NaCl and 5 mM KCl) and quickly (max 3 s) homogenised with an Ultraturrax homogenizer. In a total volume of 250 μL, 50-100 μg protein was incubated with [^3H]paroxetine (NET-869) (New England Nuclear, USA) (0.5 nM final concentration) with or without competitor for 60 min at 25° C. Incubation was stopped by rapid filtration of the incubation mixture over GF/B filters, pre-wetted with 0.1% polyethyleneamine, using a Filtermate 196 harvester (Packard, Meriden, Conn.). Filters were rinsed extensively with ice-cold buffer and radioactivity on the filters was counted in a Topcount liquid scintillation counter (Packard, Meriden, Conn.). Data were expressed as cpm. Imipramine (at 1 μM final concentration) was used to determine the non-specific binding.
as §4

Structures can show the parent of a compound that is named as a salt.

The compound `CC(=Cc1ccccc1)CN1CCN(CC2ON=C3c4ccc(CN(C)CCO)cc4OCC32)CC1` (centres unmarked) (as salt: HCl) [Compound 9, 2-(Methyl-{3-[4-(2-methyl-3-phenyl-allyl)-piperazin-1-ylmethyl]-3a,4-dihydro-3H -chromeno[4,3-c]isoxazol-7-ylmethyl}-amino)-ethanol] had a melting point of 228.6 to 252.1 °C.

`COc1cc2c(cc1CN1CCOCC1)OCC1C2=NOC1CN1CCN(CC(C)=Cc2ccccc2)CC1` (single isomer, unassigned) [Compound 20] returned a melting point of 66.5 to 89.8 °C. Further, the IC50 at hα2C receptor was 50.1 nM. Besides, the IC50 on hα2A receptor was 398 nM. Further, at hα2B receptor, the IC50 is 20 nM. Besides, the IC50 on h5-HT transporter was 20 nM.

Regarding `COc1cc2c(cc1CN1CCOCC1)OCC1C2=NOC1CN1CCN(CC(C)=Cc2ccccc2)CC1` (single isomer, unassigned) [Compound 21], the melting point lay within 56.1 to 68 °C. On hα2C receptor, the IC50 was 3.16 nM. Also, the IC50 on hα2A receptor was 15.8 nM. Besides, on hα2B receptor, the IC50 was 6.31 nM. Besides, the IC50 at h5-HT transporter was 10 nM.

On to `COCCOCOCc1cc2c(cc1OC)C1=NOC(CN3CCN(C/C(C)=C/c4ccccc4)CC3)C1CO2` (centres unmarked) [Compound 6, 8-Methoxy-7-(2-methoxy-ethoxymethoxymethyl)-3-[4-(2-methyl-3-phenyl-allyl) -piperazin-1-ylmethyl]-3a,4-dihydro-3H-chromeno[4,3-c]isoxazole], for which the IC50 at hα2C receptor was 0.794 nM; on hα2A receptor, 7.94 nM; at hα2B receptor, 2.51 nM; at h5-HT transporter it was 31.6 nM.

As for `CC(=Cc1ccccc1)CN1CCN(CC2ON=C3c4ccc(CN(C)CCO)cc4OCC32)CC1` (centres unmarked) [Compound 9, 2-(Methyl-{3-[4-(2-methyl-3-phenyl-allyl)-piperazin-1-ylmethyl]-3a,4-dihydro-3H -chromeno[4,3-c]isoxazol-7-ylmethyl}-amino)-ethanol], the IC50 on hα2C receptor was 0.2 nM; at hα2A receptor, 1.26 nM; on hα2B receptor, 0.501 nM; at h5-HT transporter it was 25.1 nM.

Regarding `COc1cc2c(cc1CN1CCOCC1)OCC1C2=NOC1CN1CCN(C/C(C)=C/c2ccccc2)CC1` (centres unmarked) [Compound 10, 8-Methoxy-3-[4-(2-methyl-3-phenyl-allyl)-piperazin-1-ylmethyl]-7-morpholin-4-ylmethyl-3a,4-dihydro-3H-chromeno[4,3-c]isoxazole], the IC50 is 0.316 nM at hα2C receptor, 6.31 nM at hα2A receptor, 3.98 nM on hα2B receptor and 25.1 nM on h5-HT transporter.

Take `C/C(=C\c1ccccc1)CN1CCN(CC2ON=C3c4ccc(C#N)cc4OCC32)CC1` (centres unmarked) [Compound 13, 3-[4-(2-Methyl-3-phenyl-allyl)-piperazin-1-ylmethyl]-3a,4-dihydro-3H -chromeno[4,3-c]isoxazole-7-carbonitrile]: the melting point was in the range of 132.2 to 146.7 °C. Besides, the IC50 on hα2C receptor was 0.501 nM. The IC50 at hα2A receptor was 1.58 nM. The IC50 on h5-HT transporter is 126 nM.

`COc1cc2c(cc1-c1ccc(C(C)=O)s1)OCC1C2=NOC1CN1CCN(CC(C)=Cc2ccccc2)CC1` (centres unmarked) [Compound 18, 1-(5-{8-Methoxy-3-[4-(2-methyl-3-phenyl-allyl)-piperazin-1-ylmethyl]-3a,4-dihydro-3H-chromeno[4,3-c]isoxazol-7-yl}-thiophen-2-yl)-ethanone]: the melting point lay in the range of 150.1 to 171.8 °C. For the same compound, the IC50 at hα2C receptor is 10 nM. In addition, the IC50 on hα2A receptor was 15.8 nM.

As to `CCN(Cc1cc2c(cc1OC)C1=NOC(CN3CCN(CC(C)=Cc4ccc(F)cc4)CC3)C1CO2)C(C)C` (centres unmarked) [Compound 24], the IC50 was 5.01 nM on hα2C receptor, 39.8 nM on hα2A receptor, 12.6 nM at hα2B receptor and 3.98 nM at h5-HT transporter.

In the case of `COc1cc2c(cc1CN1CCC(C)CC1)OCC1C2=NOC1CN1CCN(CC(C)=Cc2ccc(F)cc2)CC1` (centres unmarked) [Compound 25], the IC50 on hα2C receptor is 0.794 nM; at hα2A receptor, 6.31 nM; on hα2B receptor, 2.51 nM; at h5-HT transporter it was 31.6 nM.

The record behind these values is US7465741B2, “C-substituted tricyclic isoxazoline derivatives and their use as anti-depressants” (Janssen Pharmaceutica N.V., priority 2002, dated 2008).
